Assay [1] relates to DU145 stable transfectants. Put plainly: Chemosensitivity (MTT cytotoxicity) of stable transfectants. The assay is classed as cell-based. As to conditions: Homo sapiens, read-out: IC50 of chemical agent. The text has this:
(§1) Three human cancer cell lines, including lung cancer cell line H520 and two human prostate cancer cell lines (PC-3 and DU145) were applied for selection of stable transfectants. Four expression plasmids, including pNCRMP1, pNCN1, pNCN3, and pNCN4, and the pCI-neo vector (as control plasmid) were used for transfection, respectively. The general cultivation condition and transfection procedures were the same as described in Example 3. The transfected cells were further cultivated under the same conditions as their parental cell lines and selected with 0.6-1 mg antibiotic G418 per ml (Kao et al., Oncogene 16: 546-554 (1998); Xiaolin et al, Cancer Research 65: 9762-9770 (2005)).
(§2) Three agents, including caffeic acid phenethyl ester (CAPE; Sigma, US), Adriamycin™ (doxorubicin) (Pharmacia & Upjohn S.P.A. Milan, Italy), and paclitaxel (Taxol; Bristol-Myers Squibb Co., Wallingford, Conn.), were dissolved in DMSO (dimethyl sulfoxide; Sigma) for preparation of stock solution, respectively. A serial dilution was prepared with DPBS buffer for chemosensitivity tests. The human lung squamous carcinoma stable transfectants H520 were treated with both CAPE and Adriamycin™ (doxorubicin) for four different concentrations, e.g. 0.05, 0.01, 0.002, and 0.0004 mM, while the administering of paclitaxel was performed at different concentrations, e.g. 1000, 200, 40, and 8 nM. Both types of prostate stable transfectants were only treated with paclitaxel for eight concentrations ranging from 0.1 mM to 1.28 nM with 1/5 dilution each step.
(§3) MTT (3-(4,5-dimethylthiazol-2-yl)-2,5-diphenyltetrazolium bromide; Sigma, Inc.) assay (Monks et al., J. Natl. Cancer Inst. 83:757-766 (1991); Paull et al, J. Natl. Cancer Inst. 81:1088-1092 (1989)) was applied for studying the cytotoxic effect of indicated agent. The absorbance was measured both at 545 nm and at 690 nm (served as reference) using the 96-well spectrophotometer reader (Emax, Molecular Device Inc., California, US) (Chen et al., Yi Xue Za Zhi (Taipei) 46:7-16 (1990)). The relative growth inhibition was calculated as follows: Relative growth inhibition=100%×(1−(OD545nm (Treated cells)−OD690nm(Treated cells))÷(OD545nm(untreated cells)−OD690nm(untreated cells)))
(§4) The 50% inhibition concentration (IC50) was determined after graphical plotting of spectrophotometric measurements and interpolation by EXCEL software.

Assay [2] deals with H520 stable transfectants. The assay is described as above. Particulars: Homo sapiens, read-out: IC50 of chemical agent. The format is cell-based.
Source text: as §1, §2, §3, §4

For assay [3], the system named is PZ-HPV-7 cells. Put plainly: Chemosensitivity (MTT cytotoxicity) assay. The assay is classed as cell-based. Particulars: Homo sapiens; PZ-HPV-7, MTT; read-out: IC50 of chemical agent.
Procedure: Three agents, including caffeic acid phenethyl ester (CAPE; Sigma, US), Adriamycin™ (doxorubicin) (Pharmacia & Upjohn S.P.A. Milan, Italy), and paclitaxel (Taxol; Bristol-Myers Squibb Co., Wallingford, Conn.), were dissolved in DMSO (dimethyl sulfoxide; Sigma) for preparation of stock solution, respectively. A serial dilution was prepared with DPBS buffer for chemosensitivity tests. […] Both types of prostate stable transfectants were only treated with paclitaxel for eight concentrations ranging from 0.1 mM to 1.28 nM with 1/5 dilution each step.
Assay [4] relates to MCF-7 transient transfectants. Put plainly: Chemosensitivity of transient transfectants (cell counting). The format is cell-based. Particulars: Homo sapiens, MCF7, 72 h, read-out: IC50 of chemical agent. The method, then: (§5) Six human cancer cell lines, including human colon cancer cell lines Caco-2, CC-M1, DLD-1; human prostate cancer cell lines DU145, PC-3; and human breast cancer cell line MCF-7, were tested in an experiment on improvement of chemosensitivity. Two expression plasmids, pNCRMP1 and pNCN3, and the pCI-neo vector (control plasmid), were used for transfection, respectively. The general cultivation conditions and transfection procedures were the same as described in Example 3.
(§6) Treatment of transient transfected cell lines using chemical agent was immediately performed as follows, and quantification of viable cells was performed by counting using hemocytometer after 3-days incubation at 37° C.: • (1) Three types of transient transfected human colorectal cancer cells were treated with 5-fluorouracil; • (2) The transient transfected human prostate cancer cell line DU145 was treated with Adriamycin™ (doxorubicin), cyclophosphamide and etoposide; • (3) The transient transfected human prostate cancer cell line PC3 was treated with cyclophosphamide, etoposide, and paclitaxel; and, • (4) The transient transfected human breast cancer cell line MCF-7 was treated with Adriamycin™ (doxorubicin) and paclitaxel.

Assay [5] deals with PC-3 transient transfectants. Described as above. Particulars: Homo sapiens, 72 h, read-out: IC50 of chemical agent. The format is cell-based. The protocol: as §5, §6
The next assay has as its system CC-M1 cells. Description: Cytotoxic effect of recombinant e-rCN3 protein. Particulars: 5 μM, three treatment cycles. The format is cell-based, human. The protocol: (§7) The growth inhibition effect of recombinant e-rCN3 protein was studied with five human cell lines, including the human colon cancer cell line CC-M1, the human breast cancer cell line MCF-7, two human prostate cancer cell lines PC-3 and DU145, and the human prostate epithelium cell line PZ-HPV-7. […] The cytotoxicity assay were performed using MTT method as described by Monks et al. (J. National Cancer Institute 83:757-767 (1991)) or using cell counting-based Hemocytometer method (R. Ian Freshney, WILEY-LISS: 186, 309-312 (2000)) as described in Example 3 and Example 9. Five micromolar (μM) e-rCN3 was applied twice on three prostate cell lines for 6 hours with an interval of 16 hours, while the human colon cancer cell and breast cancer cells were treated with three cycles.

Another assay has as its system MCF-7 cells. Description: Cytotoxic effect of recombinant e-rCN3 protein. The format is cell-based, human. Particulars: 5 μM, three treatment cycles. The method, then: as §7
The next assay relates to PC-3 cells. Put plainly: Cytotoxic effect of recombinant e-rCN3 protein. The format is cell-based, human. Particulars: 5 μM applied twice for 6 hours with an interval of 16 hours. The protocol:
as §7

Assay [6] concerns PZ-HPV-7 cells. Description: Cytotoxic effect of recombinant e-rCN3 protein. The assay is classed as cell-based, human. Particulars: 5 μM applied twice for 6 hours with an interval of 16 hours. The protocol: as §7

pIC50: −log10 of the molar value. Where two headings read alike, the source gives them in different places.

`CC(=O)O[C@H]1C(=O)[C@@]2(C)[C@H]([C@H](OC(=O)c3ccccc3)[C@]3(O)C[C@H](OC(=O)[C@H](O)[C@@H](NC(=O)c4ccccc4)c4ccccc4)C(C)=C1C3(C)C)[C@]1(OC(C)=O)CO[C@@H]1C[C@@H]2O` [paclitaxel]: the negative logarithm of the IC50 (pIC50) in assay [1] (DU-145, stable transfectant DU145/pCI-neo/7 (control plasmid), MTT) is 5.10; in assay [1] (DU-145, stable transfectant DU145/pNCRMP1/2, MTT), 7.70; in assay [2] (NCI-H520, stable transfectant H520/pCI-neo/1 (control plasmid), MTT) it was 7.51; in assay [2] (NCI-H520, stable transfectant H520/pNCN1/1, MTT) it was 7.92; in [2] (NCI-H520, stable transfectant H520/pNCN3/1, MTT), greater than 8.10; in assay [2] (NCI-H520, stable transfectant H520/pNCN4/1, MTT), greater than 8.10. For the same molecule, the pIC50 was 7.92 in assay [2] (NCI-H520, stable transfectant H520/pNCRMP1/1, MTT); 5.19 with PZ-HPV-7 cells [3]; greater than 9.00 in assay [4] (transient transfectant MCF-7/pCIneo (control plasmid), 3-days incubation); 7.36 in assay [4] (transient transfectant MCF-7/pNCN3, 3-days incubation); greater than 9.00 in assay [4] (transient transfectant MCF-7/pNCRMP1, 3-days incubation); 7.06 in [5] (transient transfectant PC-3/pCIneo (control plasmid), 3-days incubation). Further, the pIC50 in [5] (transient transfectant PC-3/pNCN3, 3-days incubation) is 8.00; in assay [5] (transient transfectant PC-3/pNCRMP1, 3-days incubation), 7.16.
“e-rCN3: recombinant CN3 domain of hCRMP-1 (amino acids 208 to 480) expressed in E. coli from pE22bCN3”: the growth inhibition effect entry is listed as “over 60%” in the assay with CC-M1 cells, “over 60%” in the assay with MCF-7 cells, “approximately 40%” in the assay with PC-3 cells and “no growth inhibition effect” with PZ-HPV-7 cells [6].

One may read the pIC50 as the negative decadic logarithm of the IC50, by convention in mol/L.

Values taken from patent US7741464B2, “Compositions and methods of using CRMP-1 and its fragments for treating cancer” (Advpharma Inc., priority 2007, dated 2010).
